Experimental data taken from patent publication US6683055B1, “Low molecular weight inhibitors of complement proteases” (BASF Aktiengesellschaft, priority 1999, dated 2004).
Structures can show the parent of a compound that is named as a salt.

Key:
[1] = biological target: T1, C1r from human plasma, activated, two-chain form (Homo sapiens, UniProt P00736); assay: Color substrate test for C1r inhibition (Example A); format: biochemical; conditions: amidolytic C1r activity, substrate Cbz-Gly-Arg-S-Bzl; read-out: C1R IC50 according to Example A
T1 construct: from tissue; host or cells: human plasma
T1 sequence (P00736 18-463 partner limits assumed): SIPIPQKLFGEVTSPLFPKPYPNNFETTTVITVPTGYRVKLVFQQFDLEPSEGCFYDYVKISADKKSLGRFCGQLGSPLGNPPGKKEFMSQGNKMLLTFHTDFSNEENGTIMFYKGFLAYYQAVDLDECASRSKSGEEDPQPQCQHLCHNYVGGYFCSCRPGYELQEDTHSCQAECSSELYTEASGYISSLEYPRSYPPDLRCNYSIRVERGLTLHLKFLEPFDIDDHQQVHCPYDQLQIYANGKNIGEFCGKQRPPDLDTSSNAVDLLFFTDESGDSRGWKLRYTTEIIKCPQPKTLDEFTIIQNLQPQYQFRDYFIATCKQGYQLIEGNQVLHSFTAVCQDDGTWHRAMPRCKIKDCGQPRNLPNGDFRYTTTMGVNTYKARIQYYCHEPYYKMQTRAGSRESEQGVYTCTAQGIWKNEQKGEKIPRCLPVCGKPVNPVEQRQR
T1 sequence (P00736 464-705 limits assumed): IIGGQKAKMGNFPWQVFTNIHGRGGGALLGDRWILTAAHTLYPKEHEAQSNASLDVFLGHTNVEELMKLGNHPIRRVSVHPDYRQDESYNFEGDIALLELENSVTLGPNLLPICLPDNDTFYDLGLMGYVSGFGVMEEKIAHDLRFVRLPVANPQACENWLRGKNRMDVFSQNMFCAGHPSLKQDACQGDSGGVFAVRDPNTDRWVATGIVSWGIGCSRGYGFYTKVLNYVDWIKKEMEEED
Text: Color Substrate Test for C1r Inhibition

[2] = biological target: T2, C1s from human plasma, activated, two-chain form (Homo sapiens, UniProt P09871); assay: Color substrate test for C1s inhibition (Example B); format: biochemical; conditions: amidolytic C1s activity, substrate Cbz-Gly-Arg-S-Bzl; read-out: C1S IC50 according to Example B
T2 construct: from tissue; host or cells: human plasma
T2 sequence (P09871 16-437 partner limits assumed): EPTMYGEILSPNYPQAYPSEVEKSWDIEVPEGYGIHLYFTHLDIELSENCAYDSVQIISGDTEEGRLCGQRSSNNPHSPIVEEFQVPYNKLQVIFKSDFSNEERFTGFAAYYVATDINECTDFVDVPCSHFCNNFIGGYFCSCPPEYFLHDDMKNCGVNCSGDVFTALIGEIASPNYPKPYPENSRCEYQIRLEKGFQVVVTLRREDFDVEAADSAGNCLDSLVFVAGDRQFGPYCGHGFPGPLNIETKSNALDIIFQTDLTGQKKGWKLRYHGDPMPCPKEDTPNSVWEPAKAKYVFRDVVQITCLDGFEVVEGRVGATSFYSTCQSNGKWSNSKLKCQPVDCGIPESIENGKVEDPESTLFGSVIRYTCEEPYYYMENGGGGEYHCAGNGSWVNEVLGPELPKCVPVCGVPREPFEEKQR
T2 sequence (P09871 438-688 limits assumed): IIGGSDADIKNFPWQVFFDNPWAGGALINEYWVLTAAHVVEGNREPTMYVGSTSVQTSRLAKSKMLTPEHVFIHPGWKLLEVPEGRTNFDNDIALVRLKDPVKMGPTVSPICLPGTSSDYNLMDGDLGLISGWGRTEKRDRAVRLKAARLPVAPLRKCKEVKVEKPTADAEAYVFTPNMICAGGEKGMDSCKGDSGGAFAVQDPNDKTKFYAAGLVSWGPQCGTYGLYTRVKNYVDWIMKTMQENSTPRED
Text: Material and Methods: Color Subrate Test for C1s Inhibition

Row | Compound | IC50 [1] [µM] | IC50 [2] [µM]
1 | 2-C6H10—CH2-Gly-Pro-NH-p-amb.2HCl [Example 7] | > 100 | 4
2 | N=C(N)c1ccc(CNC(=O)[C@@H]2CCCN2C(=O)[C@@H](Cc2ccccc2)NS(=O)(=O)CC(F)(F)F)cc1 [Example 1, CF3—CH2—SO2-(D)Phe-Pro-NH-p-amb.CH3COOH] | > 100 | 6
3 | CCCCCCCCS(=O)(=O)N[C@H](Cc1ccccc1)C(=O)N1CCC[C@H]1C(=O)NCc1ccc(C(=N)N)cc1 [Example 2, n-Octyl-SO2-(D)Phe-Pro-NH-p-amb.CH3COOH] | 50 | 20
4 | N=C(N)c1ccc(CNC(=O)[C@@H]2CCCN2C(=O)[C@@H](Cc2ccccc2)NS(=O)(=O)c2cccnc2)cc1 [Example 3, 3-Py-SO2-(D)Phe-Pro-NH-p-amb.CH3COOH] | > 100 | 30
5 | CS(=O)(=O)N[C@H](CC1CCCCC1)C(=O)N1CC=C[C@H]1C(=O)NCc1ccc(C(=N)N)cc1 [Example 4, CH3—SO2-(D)Cha-Pyr-NH-p-amb.CH3COOH] | 30 | 3
6 | CC(C)[C@@H](N)C(=O)N1CCC[C@H]1C(=O)NCc1ccc(C(=N)N)cc1 [Example 5, H-(D)Val-Pro-NH-p-amb.2HCl] | – | 10
7 | CC(C)(C)OC(=O)N[C@H](CC(=O)OCc1ccccc1)C(=O)N1CCC[C@H]1C(=O)NCc1ccc(C(=N)N)cc1 [Example 6, Boc-(D)Asp(OBn)-Pro-NH-p-amb.CH3COOH] | – | 6
8 | N=C(N)c1ccc(CNC(=O)[C@@H]2CCCN2C(=O)CNC(=O)CCc2ccccc2)cc1 [Example 8, C6H5—CH2—CH2—CO-Gly-Pro-NH-p-amb.HI] | > 100 | 6
9 | N=C(N)c1ccc(CNC(=O)[C@@H]2CCCN2C(=O)CNC(=O)CCCc2ccccc2)cc1 [Example 9, C6H5—(CH2)3—CO-Gly-Pro-NH-p-amb.HI] | > 100 | 20
10 | CC1CCN[C@@H](C(=O)N2CCC[C@H]2C(=O)NCc2ccc(C(=N)N)cc2)C1 (stereo partly drawn) [Example 10, (D)(4-Me)Pic-Pro-NH-p-amb.2CH3COOH] | > 100 | 20
11 | N=C(N)c1ccc(CNC(=O)[C@@H]2CCCN2C(=O)[C@H]2Cc3ccccc3CN2)cc1 [Example 11, H-(D)3-Tic-Pro-NH-p-amb.2CH3COOH] | > 100 | 30
12 | N=C(N)c1ccc(CNC(=O)[C@@H]2CCCN2C(=O)[C@@H](Cc2ccccc2)NCCCS(=O)(=O)O)cc1 [Example 12, HO3S—(CH2)3-(D)Phe-Pro-NH-p-amb.HCl] | > 100 | 30
13 | CS(=O)(=O)N[C@H](CC1CCCCC1)C(=O)N1CC=C[C@H]1C(=O)NCc1ccc(C(=N)N)nc1 [Example 13, CH3—SO2-(D)Cha-Pyr-NH-3-(6-am)-pico.CH3COOH] | 30 | 10
14 | CS(=O)(=O)N[C@@H](C(=O)N1CCC[C@H]1C(=O)NCc1ccc(C(=N)N)nc1)C1CCCCC1 [Example 14, CH3—SO2-(D)Chg-Pro-NH-3-(6-am)-pico.CH3COOH] | > 100 | 20
15 | N=C(N)c1ccc(CNC(=O)[C@@H]2C=CCN2C(=O)[C@@H](CC2CCCCC2)NS(=O)(=O)Cc2ccccc2)cn1 [Example 15, C6H5—CH2—SO2-(D)Cha-Pyr-NH-3-(6-am)-pico.CH3COOH] | 3 | 2
16 | N=C(N)c1ccc(CNC(=O)[C@@H]2CCCN2C(=O)[C@H](NS(=O)(=O)CC(=O)O)C2CCCCC2)cn1 [Example 16, HOOC—CH2—SO2-(D)Chg-Pro-NH-3-(6-am)-pico.CH3COOH] | > 100 | 20
17 | COC(=O)CS(=O)(=O)N[C@@H](C(=O)N1CCC[C@H]1C(=O)NCc1ccc(C(=N)N)nc1)C1CCCCC1 [Example 17, CH3OOC—CH2—SO2-(D)Chg-Pro-NH-3-(6-am)-pico.CH3COOH] | 40 | 4

Row | Compound | IC50 [1] [µM] | IC50 [2] [µM]
18 | N=C(N)c1ccc(CNC(=O)[C@@H]2C=CCN2C(=O)[C@H](NCC(=O)O)C2CCCCC2)cn1 [Example 18, HOOC—CH2-(D)Chg-Pyr-NH-3-(6-am)-pico.CH3COOH] | 10 | 7
19 | N=C(N)c1ccc(CNC(=O)[C@@H]2C=CCN2C(=O)C(CCC2CCCCC2)NCC(=O)O)cn1 (stereo partly drawn) [Example 19, HOOC—CH2-HCha-Pyr-NH-3-(6-am)-pico] | 30 | 30
20 | CC(C)(C)OC(=O)Nc1ccc(CS(=O)(=O)N[C@H](CC2CCCCC2)C(=O)N2CC=C[C@H]2C(=O)NCc2ccc(C(=N)N)nc2)cc1 [Example 20, Boc-NH-p-C6H4CH2—SO2-(D)Cha-Pyr-NH-3-(6-am)-pico-CH3COOH] | 0.6 | 2
21 | N=C(N)c1ccc(CNC(=O)[C@@H]2C=CCN2C(=O)[C@@H](CC2CCCCC2)NS(=O)(=O)Cc2ccc(N)cc2)cn1 [Example 21, H2N-p-C6H4CH2—SO2-(D)Cha-Pyr-NH-3-(6-am)-pico-HCl] | 4 | 1
22 | CC(C)(C)OC(=O)Nc1ccc(CS(=O)(=O)N[C@@H](C(=O)N2CC=C[C@H]2C(=O)NCc2ccc(C(=N)N)nc2)C2CCCCC2)cc1 [Example 22, Boc-NH-p-C6H4—CH2—SO2-(D)Chg-Pyr-NH-3-(6-am)-pico.CH3COOH] | 0.9 | 0.6
23 | N=C(N)c1ccc(CNC(=O)[C@@H]2C=CCN2C(=O)[C@H](NS(=O)(=O)Cc2ccc(N)cc2)C2CCCCC2)cn1 [Example 23, H2N-p-C6H4—CH2—SO2-(D)Chg-Pyr-NH-CH2-3-(6-am)-pico.HCl] | 0.5 | 0.8
24 | N=C(N)c1ccc(CNC(=O)[C@@H]2CCCN2C(=O)[C@H](NCCCCCC(=O)O)C2CCCCC2)cn1 [Example 24, HOOC—(CH2)5-(D)Chg-Pro-NH-3-(6-am)-pico.CH3COOH] | > 100 | 0.8
25 | CCOC(=O)CCCCCN[C@@H](C(=O)N1CCC[C@H]1C(=O)NCc1ccc(C(=N)N)nc1)C1CCCCC1 [Example 25, C2H5OOC—(CH2)5-(D)Chg-Pro-NH-3-(6-am)-pico.CH3COOH] | 50 | 6
26 | N=C(N)c1ccc(CNC(=O)[C@@H]2CCCN2C(=O)[C@H](NCCCCC(=O)O)C2CCCCC2)cn1 [Example 26, HOOC—(CH2 )4-(D)Chg-Pro-NH-3-(6-am)-pico.CH3COOH] | > 100 | 2
27 | CC(C)(C)OC(=O)CCCN[C@@H](C(=O)N1CCC[C@H]1C(=O)NCc1ccc(C(=N)N)nc1)C1CCCCC1 [Example 27, t-BUOOC—(CH2)3-(D)Chg-Pro-NH-3-(6-am)-pico.CH3COOH] | 10 | 20
28 | N=C(N)c1ccc(CNC(=O)[C@@H]2C=CCN2C(=O)CN(Cc2ccccc2)Cc2ccccc2)cn1 [Example 28, (C6H5—CH2)2-Gly-Pyr-NH-3-(6-am)-pico.CH3COOH] | > 100 | 20
29 | N=C(N)c1ccc(CNC(=O)[C@@H]2C=CCN2C(=O)[C@H](NCC(=O)O)C2CCCCC2)s1 [Example 29, HOOC—CH2-(D)Chg-Pyr-NH-CH2-5-(2-am)-thioph.CH3COOH] | 0.9 | 0.6
30 | N=C(N)c1ccc(CNC(=O)[C@@H]2CCN2C(=O)[C@H](NCC(=O)O)C2CCCCC2)s1 [Example 31, HOOC—CH2-(D)Chg-Aze-NH-CH2-5-(2-am)-thioph] | 3 | 10
31 | N=C(N)c1ccc(CNC(=O)[C@@H]2C=CCN2C(=O)[C@@H](CC2CCCCC2)NCC(=O)O)s1 [Example 32, HOOC—CH2-(D)Cha-Pyr-NH—CH2-5-(2-am)-thioph.CH3COOH] | 10 | 30
32 | N=C(N)c1ccc(CNC(=O)[C@@H]2CSCN2C(=O)[C@@H](CC2CCCCC2)NCC(=O)O)s1 [Example 33, HOOC—CH2-(D)Cha-Thz-4-CO—NH—CH2-5-(2-am)-thioph.2HCl] | 40 | 40
33 | N=C(N)Nc1ncc(CNC(=O)[C@@H]2C=CCN2C(=O)[C@@H](CC2CCCCC2)NCC(=O)O)s1 [Example 54, N-(Hydroxycarbonyl-methylene)-(D)cyclohexylalanyl-3,4-dehydroprolyl-[5-(2-guanidino)thiazolylmethyl]amide Bishydrochloride] | – | 8
